In patent US8148392B2, “2-indolyl imidazo [4,5-d] phenanthroline derivatives and their use in the treatment of cancer” (Lorus Therapeutics Inc., priority 2005, dated 2012):

How the values were obtained:
MTF-1 = MTF-1 DNA-binding activity, EMSA, HT-29 nuclear extract; assay type: cell-based, human
Description: To verify the change in MTF-1 activity at earlier time of incubation, prior to the significant decrease in MTF-1 gene expression, MTF-1 nuclear translocation and DNA-binding activity was determined in nuclear extract of HT-29 cells treated with compound 3 for 4 hr, by electrophoretic mobility shift assay (EMSA) (FIG. 40B) as follows. HT-29 cells were treated with DMSO, 35 μM ZnCl2 (positive control) and 1 μM compound 3 for 4 hr. Nuclear protein was extracted and incubated with biotin-labeled MTF-1 binding oligonucleotide probes. The retarded mobility of labeled probe upon MTF-1 binding was observed as a band shift (FIG. 40B). […] In zinc-treated groups, 2 additional shift bands (open arrows) were observed (lane 3), indicating the increase in zinc-dependent MTF-1 activity. […] Excess unlabeled probes were added in lane 2, 4 and 6 to compete the labeled probes binding with MTF-1 in the nuclear extract, showing the specificity of MTF-1-binding shift bands in lane 1, 3 and 5, respectively.
HT-29 cells were treated with 35 μM ZnCl2 for 4 hr and the nuclear extract from zinc-treated cells (zinc-activated MTF-1) was treated with compound 3 in vitro and DNA-binding activity of MTF-1 to MRE sequence was assessed by electrophoretic mobility shift assay (EMSA) (Panomics, Redwood City, Calif.).
To examine inactivation of MTF-1 by compound 3 in the cells, HT-29 cells were treated with compound 3 for 1 to 4 hr and DNA-binding activity of MTF-1 in the nuclear extract was assessed by EMSA.

Cyclin E = Cyclin E protein in HT-29 cells, Western blotting; assay type: cell-based, human; details: HT-29, 1 μM
KLF4 protein = KLF4 protein in HT-29 cells, Western blot; assay type: cell-based, human; details: HT-29, 2.5, 5, 7.5 and 10 μM, 16 hours
Description: The ability of compound of Formula I to increase expression of KLF4 protein was determined as follows. HT-29 cells were treated with vehicle control (DMSO), TPEN (4 μM), ZnCl2 (100 μM), or compound 3 (2.5, 5, 7.5 and 10 μM) for 16 hours. Cells were lysed and subjected to Western blot with anti-KLF4 antibodies, or GAPDH antibodies to ensure equal protein loading.

Sp1 = Sp1 DNA binding activity, EMSA, HT-29 nuclear extracts; assay type: cell-based, human
Description: Based on overlapping transcription factor binding sites on KLF4 gene promoter region (as shown in FIG. 32A), MTF-1 binding may favor increased binding of other KLF4 inducers; Sp1 and KLF4.
Electrophoretic mobility shift assay (EMSA) was performed as follows. Nuclear extracts from HT-29 cells (10^7 cells in 100 mm culture dish in each experimental group) were prepared using nuclear extraction kit (Panomics, Redwood City, Calif.). EMSA assays were performed using KLF4 and Sp1 EMSA “Gel-Shift” kits (Panomics), by following the manufacturer's instruction. Briefly, 5 μg of nuclear extract was used for each binding reaction. After 30 min of binding reaction, the samples were separated on 6% polyacrylamide gel at 4° C. at 120 V, and transferred to BrightStar™-Plus positively charged nylon membrane. The biotin-labeled probes on the membrane were visualized by using ECL detection system (Panomics).

K-562 leukemia cell line = assay: NCI DTP in vitro screen, K-562; assay type: cell-based, human; details: K-562, in words
Description: (§1) For example, the following methodology, which is currently employed by the NCI, can be used to assess the GI50 of a candidate compound of Formula I in the selected cancer cell lines. Briefly, cell suspensions are diluted (5000-40,000 cells per well) and 100 μL of the diluted cell suspension is added into 96-well microtiter plates. Inoculates are allowed a preincubation period of 24 h at 37° C. for stabilization. Dilutions at twice the intended test concentration of the candidate compound are added at time zero in 100 μL aliquots to the microtiter plate wells. Test compounds are generally evaluated at five 10-fold dilutions. In routine testing, the highest well concentration is usually 10E-4 M, but this may be adjusted depending on the compound being tested. […] The cells are then assayed by using the sulforhodamine B assay (see, for example, Skehan, P., et al. (1990) JNCI, J. Natl. Cancer Inst. 82, 1107-1112; and Chen, S. F., et al. (1990) Proc. Am. Assoc. Cancer Res. 31, A2644) employing a plate reader which can be used to read the optical densities.
(§2) Compounds 2 and 3 were evaluated for their antiproliferative effects in a panel of 60 human cancer cell lines as part of the in vitro anticancer screening services provided by the DTP (Developmental Therapeutics Program) of the US National Cancer Institute (NCI).

[1] = test system: CCRF-CEM leukemia cell line; assay: NCI DTP in vitro screen, CCRF-CEM; assay type: cell-based; details: Homo sapiens
Description: as §1, §2

KLF5 = KLF5 gene expression in HT-29 cells, RT-PCR; assay type: cell-based, human; details: HT-29, 1 μM, after 4 hr
Description: HT-29 cells were treated with 1 μM compound 3 for indicated time (FIG. 41B). Total RNA was extracted and gene expression level was determined by RT-PCR.

Cc1[nH]c2ccccc2c1-c1nc2c3cccnc3c3ncccc3c2[nH]1 [Compound 3]
DNA-binding activity of MTF-1 (MTF-1; HT-29 cells treated for 1 to 4 hr): Significant decrease in MTF-1 activity | zinc-dependent MTF-1 DNA-binding activity (MTF-1; HT-29 treated with 1 μM for 4 hr, versus ZnCl2 positive control): zinc-dependent MTF-1 activity was not increased | DNA-binding activity of zinc-activated MTF-1 (MTF-1; nuclear extract of zinc-treated HT-29 cells treated in vitro): Inactivation of MTF-1 DNA-binding | Cyclin E expression (Cyclin E): decreased expression of Cyclin E | level of KLF4 protein (KLF4 protein): able to increase the level of KLF4 protein | DNA binding activity of Sp1 (Sp1): Increased DNA binding activities | GI50 (K-562 leukemia cell line): nanomolar range | GI50 [1]: 30 nM | KLF5 gene expression (KLF5): decrease in KLF5 gene expression
